The target in series [1] is T1, wild type HCV NS3/4A 1b protease enzyme (Hepatitis C virus genotype 1b, UniProt P26663).
T1 construct: 10× stocks of NS3/4A protease enzyme from Bioenza (Mountain View, Calif.); purchased Bioenza (Mountain View, Calif.)
Briefly: biochemical. The format is biochemical. The following applies: read-out: Inhibition, WT; WT enzyme, FRET assay.

Series [2] addresses T2, A156T mutant of the HCV NS3/4A 1b protease enzyme (Hepatitis C virus genotype 1b, UniProt P26663, A1182T).
T2 construct: 10× stocks of NS3/4A protease enzyme from Bioenza (Mountain View, Calif.); purchased Bioenza (Mountain View, Calif.)
Description: HCV Protease FRET Assay (IC50), A156T mutant. The following applies: read-out: Inhibition, HCV A156T; A156T enzyme, FRET assay. The format is biochemical. The procedure:
HCV Protease FRET Assay for Wild Type and Mutated NS3/4A 1b Enzymes (IC50)
The protocol is a modified FRET-based assay (v—02) from In Vitro Resistance Studies of HCV Serine Protease Inhibitors, 2004, JBC, vol. 279, No. 17, pp 17508-17514.
10× stocks of NS3/4A protease enzyme from Bioenza (Mountain View, Calif.) and 1.13× 5-FAM/QXL™ 520 FRET peptide substrate from Anaspec (San Jose, Calif.) were prepared in 50 mM HEPES, pH 7.8, 100 mM NaCl, 5 mM DTT and 20% glycerol. 5 μL of each enzyme were pre-incubated in a Corning (#3573) 384-well, black, non-treated microtiter plate (Corning, N.Y.) for 30 min at 25° C. with a 0.5 μL volume of 50% DMSO and serially diluted compounds prepared in 50% DMSO. Protease reactions were started with the addition of 45 μL of the FRET substrate and monitored for 120 minutes at λex487/λem514 through Quad^4 monochromoters in a Synergy^4 plate reader from BioTek (Winooski, Vt.). At the conclusion of each assay, progress curves from each well were examined for linear reaction kinetics and fit statistics (R^2, absolute sum of squares). Initial velocity (0 minutes to 30+ minutes) from each reaction was determined from the slope of a plot of relative fluorescence units vs time (minutes) and then plotted against inhibitor concentration to estimate IC50 from log[Inhibitor] vs Response, Variable Slope model in GraphPad Prism from GraphPad Software (San Diego, Calif.).
The compound numbers correspond to the compound numbers in Table 3. […] ;

Series [3] concerns the target T3, D168A mutant of the HCV NS3/4A 1b protease enzyme (Hepatitis C virus genotype 1b, UniProt P26663, D1194A).
T3 construct: 10× stocks of NS3/4A protease enzyme from Bioenza (Mountain View, Calif.); purchased Bioenza (Mountain View, Calif.)
Briefly: HCV Protease FRET Assay (IC50), D168A mutant. Format: biochemical. Particulars: read-out: Inhibition, HCV D168A; D168A enzyme, FRET assay.

The subject of series [4] is HCV RNA replicon in cell line ET (luc-ubi-neo/ET), human Huh7 hepatoma. Description: Method A: HCV RNA replicon antiviral assay (luciferase, ET cell line). Format: cell-based, Hepatitis C virus. The following applies: Hepatitis C virus, Huh-7. In outline: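 Six 3-fold dilutions of each drug were tested on subconfluent luc-ubi-neo/ET Huh7 replicon cells (5×10^3/well) for 72 hr at 37 °C. EC50 and EC90 came from luciferase read-out, IC50 from CytoTox-1 cell number, and […]; interferon alpha-2b was run each time as control.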
On the technique in general: Replicon systems follow genome replication, usually without infectious particles.

Series [5] relates to cell line ET (luc-ubi-neo/ET), human Huh7 hepatoma cell line. Briefly: Method A: cytotoxicity in ET replicon cells (CytoTox-1). Format: cell-based. Particulars: concentration decreasing cell viability by 50%, 72 hr. An outline of the steps:
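ET cells (Huh7 carrying luciferase HCV replicon), 5×10^3 cells/well, given six 3-fold compound concentrations in DMEM with 5% FBS. After 72 hr, while subconfluent, cell number was measured with CytoTox-1 reagent. Interferon alpha-2b served as positive control.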

In series [6] the target is T1, wild type HCV NS3/4A 1b protease enzyme. Description: HCV Protease FRET Assay (IC50_APP), wild type. Format: biochemical. Particulars: read-out: IC50_APP, WT; apparent IC50, wild type NS3/4A 1b.
Series [7] concerns the target T2, A156T mutant of the HCV NS3/4A 1b protease enzyme. Briefly: HCV Protease FRET Assay (IC50_APP), A156T mutant. The format is biochemical. Particulars: apparent IC50, A156T mutant; read-out: IC50_APP, HCV A156T.
Series [8] deals with T3, D168A mutant of the HCV NS3/4A 1b protease enzyme. Description: HCV Protease FRET Assay (IC50_APP), D168A mutant. The following applies: apparent IC50, D168A mutant; read-out: IC50_APP, HCV D168A. Format: biochemical.
[9] abbreviates: Replicon, assay of Example 22, 72 hr, read-out: Inhibition, Replicon.
Setting [10] is: assay described in Example 22, read-out: Replicon (IC50).

Each structure is given as a SMILES string. Like-named read-outs stand apart in the source and are kept apart here.

For orientation: IC90 means the point of the concentration-response curve where the effect stands at 90%. Read a high IC90 as a need for much substance.

With `C=C[C@@H]1C[C@]1(NC(=O)[C@@H]1C[C@@H](Oc2cc(-c3ccccc3)nc3cc(OC)ccc23)CN1C(=O)[C@H](CNC(=O)C(C)Br)NC(=O)OC(C)(C)C)C(=O)NS(=O)(=O)c1ccccc1` (stereo partly drawn) [Compound I-22, tert-butyl(S)-3-(2-bromopropanamido)-1-((2S,4R)-4-(7-methoxy-2-phenylquinolin-4-yloxy)-2-((1R,2S)-1-(phenylsulfonylcarbamoyl)-2-vinylcyclopropylcarbamoyl)pyrrolidin-1-yl)-1-oxopropan-2-ylcarbamate], the IC50 in series [1] is less than 10 nM; in series [2], 10 to 100 nM; in series [3], 10 to 100 nM; in series [4] (setting [9]), 100 to 1000 nM; in series [4] (setting [10]) it was 100 to 1000 nM; in series [6], less than 10 nM. The IC50 in series [7] and in series [8] was 1000 to 10000 nM in each case. Further, in series [4] (assay described in Example 22), the IC90 is more than 10000 nM. Also, the “Inhibition, Cytotoxicity” value in series [5] is “D (IC50>1000 nM and <10,000 nM)”.

Take `C=CC(=O)N(C)C[C@H](NC(=O)OC(C)(C)C)C(=O)N1C[C@H](Oc2cc(-c3ccccc3)nc3cc(OC)ccc23)C[C@H]1C(=O)N[C@]1(C(=O)NS(=O)(=O)c2ccccc2)C[C@H]1C=C` [Compound I-28, tert-butyl-(S)-1-((2S,4R)-4-(7-methoxy-2-phenylquinolin-4-yloxy)-2-((1R,2S)-1-(phenylsulfonylcarbamoyl)-2-vinylcyclopropylcarbamoyl)pyrrolidin-1-yl)-3-(N-methylacrylamido)-1-oxopropan-2-ylcarbamate]: the IC50 in series [1] is less than 10 nM; in series [2] it was 10 to 100 nM; in series [3], 100 to 1000 nM; in series [4] (setting [9]) it was less than 10 nM; in series [4] (setting [10]), 10 to 100 nM; in series [6], less than 10 nM. Moreover, the IC50 in series [7] and in series [8] was 1000 to 10000 nM each time. The IC90 in series [4] (assay described in Example 22) lay within 100 to 1000 nM. The “Inhibition, Cytotoxicity” value in series [5] was “D (IC50>1000 nM and <10,000 nM)”.

For the compound `C=C[C@@H]1C[C@]1(NC(=O)[C@@H]1C[C@@H](Oc2cc(-c3ccccc3)nc3cc(OC)ccc23)CN1C(=O)[C@H](CN(C)C(=O)[C@H](Cl)c1ccccc1)NC(=O)OC(C)(C)C)C(=O)NS(=O)(=O)c1ccccc1` [Compound I-33, tert-butyl-(2S)-3-(2-chloro-N-methyl-2-phenylacetamido)-1-((2S,4R)-4-(7-methoxy-2-phenylquinolin-4-yloxy)-2-((1R,2S)-1-(phenylsulfonylcarbamoyl)-2-vinylcyclopropylcarbamoyl)pyrrolidin-1-yl)-1-oxopropan-2-ylcarbamate], the IC50 in series [1] was less than 10 nM; in series [2] it was 100 to 1000 nM; in series [3], 100 to 1000 nM; in series [4] (setting [9]), less than 10 nM; in series [4] (setting [10]) it was less than 10 nM; in series [6], less than 10 nM. In addition, the IC50 in series [7] and in series [8] was 1000 to 10000 nM in each case. Moreover, the IC90 in series [4] (assay described in Example 22) is 10 to 100 nM. The “Inhibition, Cytotoxicity” value in series [5] was “E (IC50≧10,000 nM)”.

As to `C=CC(=O)NC[C@H](NC(=O)OC(C)(C)C)C(=O)N1C[C@H](Oc2cc(-c3ccccc3)nc3cc(OC)ccc23)C[C@H]1C(=O)N[C@]1(C(=O)NS(=O)(=O)C2CC2)C[C@H]1C=C` [Compound I-35, tert-butyl-(S)-3-acrylamido-1-((2S,4R)-2-((1R,2S)-1-(cyclopropylsulfonylcarbamoyl)-2-vinylcyclopropylcarbamoyl)-4-(7-methoxy-2-phenylquinolin-4-yloxy)pyrrolidin-1-yl)-1-oxopropan-2-ylcarbamate], the IC50 in series [1] is less than 10 nM; in series [2], less than 10 nM; in series [3], less than 10 nM; in series [4] (setting [9]), less than 10 nM; in series [4] (setting [10]), 10 to 100 nM; in series [6], less than 10 nM. For the same compound, the IC50 in series [7] and in series [8] was 100 to 1000 nM each time. The compound further yielded an IC90 in series [4] (assay described in Example 22) of 100 to 1000 nM. Moreover, in series [5], the “Inhibition, Cytotoxicity” value is “C (IC50>100 nM and ≦1000 nM)”.

As to `C=CC(=O)NCC(=O)N1C[C@H](Oc2cc(-c3ccccc3)nc3cc(OC)ccc23)C[C@H]1C(=O)N[C@]1(C(=O)NS(=O)(=O)C2CC2)C[C@H]1C=C` [Compound I-39, (2S,4R)-1-(2-acrylamidoacetyl)-N-((1R,2S)-1-(cyclopropylsulfonylcarbamoyl)-2-vinylcyclopropyl)-4-(7-methoxy-2-phenylquinolin-4-yloxy)pyrrolidine-2-carboxamide], the IC50 in series [1] is less than 10 nM; in series [2], less than 10 nM; in series [3] it was less than 10 nM; in series [4] (setting [9]), 10 to 100 nM; in series [4] (setting [10]) it was 10 to 100 nM; in series [6], less than 10 nM. The IC50 in series [7] lay within 10 to 100 nM; in series [8] it was 100 to 1000 nM. For the same compound, the IC90 in series [4] (assay described in Example 22) was 100 to 1000 nM. Moreover, in series [5], the “Inhibition, Cytotoxicity” value is “C (IC50>100 nM and ≦1000 nM)”.

With `C=CC(=O)N[C@H](C)C(=O)N1C[C@H](Oc2cc(-c3ccccc3)nc3cc(OC)ccc23)C[C@H]1C(=O)N[C@]1(C(=O)NS(=O)(=O)c2ccccc2)C[C@H]1C=C` [Compound I-46, (2S,4R)-1-((R)-2-acrylamidopropanoyl)-4-(7-methoxy-2-phenylquinolin-4-yloxy)-N-((1R,2S)-1-(phenylsulfonylcarbamoyl)-2-vinylcyclopropyl)pyrrolidine-2-carboxamide], the IC50 in series [1], in series [2], in series [3], in series [4] (setting [9]), in series [4] (setting [10]) and in series [6] was less than 10 nM each time. The IC50 was in the range of 10 to 100 nM in series [7] and 100 to 1000 nM in series [8]. This compound also came in with an IC90 in series [4] (assay described in Example 22) of less than 10 nM. The “Inhibition, Cytotoxicity” value in series [5] is “C (IC50>100 nM and ≦1000 nM)”.

The record behind these values is patent publication US8309685B2 (Celgene Avilomics Research, Inc., priority 2007, dated 2012).
